{"source": "patent US7915285B2", "about": "“Method for treating drug and behavioral addictions” (priority 2005, dated 2011)", "key": {"[1]": {"system": "naloxone-precipitated morphine withdrawal syndrome", "test": "Rat model of naloxone-precipitated morphine withdrawal, total withdrawal score (Example 2)", "type": "in vivo", "protocol": "Drug stability and concentration were validated by HPLC/MS/MS.\nPathogen-free adult male Sprague-Dawley rats (280-350 g; Harlan Labs) were used in all experiments. Rats were housed in temperature (23[…]3° C.) and light (12:12 light: dark; lights on at 0700 hr) controlled rooms with standard rodent chow and water available ad libitum. Behavioral testing was performed during the light cycle. Approval of the Institutional Animal Care and Use Committee at University of Colorado was obtained for all procedures.\nThe schedule for morphine treatment (via subcutaneous injections) was as follows: Day 1: 5 mg/kg at 1000 hr, 5 mg/kg at 1300 hr, 5 mg/kg at 1700 hr; Day 2: 5 mg/kg at 1000 hr, 12.5 mg/kg at 1700 hr; Day 3: 15 mg/kg at 1000 hr; Day 4: 17.5 mg/kg at 1000 hr; Day 5: 5 mg/kg at 1000 hr, 17.5 mg/kg at 1200 hr.\nThe withdrawal signs measured were: (1) abnormal posturing (an animal presses his abdomen and lower jaw against the floor of the cage); (2) exploration (an animal circles around the cage, thrusting its head in several directions and examining its surroundings); (3) jumping; (4) cleaning (grooming); (5) rearing (an animal stands on its hindpaws with the forepaws off the ground).\nWithdrawal scores were measured by blinded observers in 10 minute blocks for 60 minutes immediately after naloxone precipitated withdrawal was initiated. […]"}, "activated microglia": {"system": "activated microglia", "conditions": "dose-dependent; cited from earlier work"}, "[2]": {"system": "nucleus accumbens dopamine", "test": "Nucleus accumbens dopamine microdialysis after 5 days of morphine and ibudilast (Example 6)", "type": "in vivo, rat", "conditions": "for nucleus accumbens dopamine levels: 7.5 mg/kg", "protocol": "Pathogen-free adult male Sprague-Dawley rats were used in all experiments. Rats (300-325 g at the time of arrival; Harlan Labs, Madison, Wis.) were housed in temperature (23±3° C.) and light (12:12 light:dark; lights on at 0700 hours) controlled rooms with standard rodent chow and water available ad libitum. All procedures were approved by the Institutional Animal Care and Use Committee at the University of Colorado at Boulder. Upon arrival male Sprague Dawley rats (300-400 g) were housed in pairs and allowed to acclimatize to the animal colony for one week. 5×90 minute sessions of handling by investigators and animal acclimatization to the microdialysis environment were performed during the following week.\nMicrodialysis guide cannula implantation was performed under halothane anaesthesia. CMA 12 guide cannulae (CMA Microdialysis) were aimed at either the right or left nucleus accumbens (AP=+1.7, LM=±0.8, DV=−6.0) in a counterbalanced fashion. Coordinates were from bregma using the atlas of Paxinos and Watson (1998). The guide cannulae and a tether screw (CMA Microdialysis) were anchored to the skull with three jeweler's screws and dental cement. Rats were individually housed after surgery and allowed to recover for one week.\nAnimals then began a 7 day dosing regimen (groups of 6 animals at a time, n=10 per treatment group). […] Body weights were recorded prior to each dosing session to allow for accurate dose calculations and to track the opioid induced weight loss.\nMicrodialysis probes (CMA 12, MW cut-off 20,000 Da, 2 mm active membrane) were inserted into the guide cannulae and rats were placed in separate Plexiglas infusion bowls with food and water available ad libitum. […] Dialysates were analyzed by HPLC within 2 weeks of collection.\nDopamine in the dialysates was determined using an ESA 5600A COULARRAY detector with an ESA 5014B analytical cell and an ESA 5020 guard cell connected to an ESA HR80 column (C18, […], 80×3 mm) which was maintained at 30° C. […] Quantitative comparisons were made with external standards (Sigma-Aldrich, St Louis, Mo.) that were run each day. […]"}}}
{"smiles": "CC(C)C(=O)c1c(C(C)C)nn2ccccc12", "note": "[ibudilast, 2-methyl-1-(2-(1-methylethyl)pyrazolo(1,5-a)pyridin-3-yl)1-propanone]", "values": [{"measurement": "total withdrawal score", "setting": "[1]; high dose 7.5 mg/kg i.p. bid, FIG. 2B, 2D", "value": "remarkably attenuated behavioral signs of withdrawal"}, {"measurement": "total withdrawal score", "setting": "[1]; low dose 2.5 mg/kg i.p. bid, vs saline controls, FIG. 2C", "value": "no effect compared to saline controls"}, {"measurement": "production of inhibitory cytokine and neurotrophic factors", "setting": "activated microglia", "value": "enhanced the production of the inhibitory cytokine, IL-10, and additional neurotrophic factors"}, {"measurement": "production of pro-inflammatory mediators", "setting": "activated microglia", "value": "suppressed the production of nitric oxide (NO), reactive oxygen species, interleukin (IL)-1β, IL-6, and tumor necrosis factor (TNF)"}, {"measurement": "nucleus accumbens dopamine levels", "setting": "[2]; during naloxone precipitated opioid withdrawal, FIG. 10", "value": "reduced nucleus accumbens dopamine levels"}, {"measurement": "nucleus accumbens dopamine levels", "setting": "[2]; following morphine administration, spontaneous opioid withdrawal, FIG. 11", "value": "also reduced nucleus accumbens dopamine levels"}, {"measurement": "morphine induced nucleus accumbens dopamine increases", "setting": "[2]; morphine-dependent animals, during morphine administration and withdrawal, FIGS. 10 and 11", "value": "dramatically reduced morphine induced nucleus accumbens dopamine increases"}]}
